In US20250144187A1, “COMBINATION OF HYDROLASES AND ANTI-MICROORGANISM DRUGS AND USES THEREOF” (CENTRE FOR EYE AND VISION RESEARCH LIMITED, priority 2023, published 2025):
Read-outs that look alike come from different tables or passages of the source.

What was measured:
MRSA-infected skin wound = test: Rat skin infection model, cefdinir/lysozyme; type: in vivo, Sprague Dawley (SD) rats; details: combination therapy vs control or mono-therapy groups
Experimental: 16) Rat skin Infection model. […] Others were infected by about 5×10^11 CFU of mid-log phase MRSA from our own collection. Briefly, all rats were firstly pre-depilated by using 10% Na2S to get an uncovered back area of 4 cm×4 cm prior to 24 hours for the anesthetization on rats. Then, the skin of anesthetized rat was removed until fascial region under sterile condition, followed by bacterial infection by spraying 5×10^11 CFU of MRSA suspension on wound (3 cm×3 cm). To collect these bacterial suspensions, mid-log phase MRSA would be collected by centrifugation at 4500 g for 15 minutes washed with PBS for 3 limes and re-suspended in cold PBS to get bacterial suspension with an initial density of about 4.0×10^11 CFU/ml according to pre-experiment. Next, 1.25 ml of bacterial suspensions was inoculated into wound, Normal saline was used to replace bacterial suspension in uninfected group. After 1 hour infection, wound of infected rat was covered by sterile medical gauze. All sterile medical gauzes were 0.2 g/cm^2, which were further covered by two layers of sterile gauzes and fixed by sterile tapes. After that, rats were monitored until they were fully awake, followed by return to their cages. After 24 hours infection, these sterile medical gauzes were replaced with new sterile medical gauzes. […] About 4-μm sections was analyzed by using the hematoxylin and eosin (H-E) staining. […]

MRSA [1] = test: Nascent protein synthesis analysis (OPP probe); type: cell-based; details: Staphylococcus aureus, 1 h, read-out: minimal dosage of tedizolid phosphate for synthesis inhibition of half of the nascent protein
Experimental: 12) Nascent protein synthesis analysis. According to the previously reported method [Forester, C. M et al., Proc. Nat. […] Specifically, mid-log-phase MRSA with OD600 of 0.4 to 0.6 was treated with lysozyme, tedizolid phosphate or their combination at different concentrations at 37° C. for 1 hour. These bacteria served as related negative control groups. Positive control groups had similar protocols but with addition of 20 μM OPP. After 1 hour incubation, all bacteria were collected washed by cold PBS for 3 times and fixed by 3.7% formaldehyde in PBS, followed by re-suspension in lysis buffer containing 0.5% Triton® X-100. Then, these fixed and permeabilized cells were incubated with Click-iT™ plus OPP reaction cocktail according to the standard protocol [Forester, C. M et al., Proc. Nat. Acad. U.S.A. 115, 2353-2358 (2018)]. After 30 minutes incubation in the prevention of light at room temperature, the reaction cocktail was removed. Next, these fixed cells in 96-well plate were washed by using 200 μl/well of Click-iT® reaction rinse buffer, followed by further incubation with 1×HCS nuclear Mask™ blue stain working solution. After 30 minutes incubation in the prevention of light at room temperature, the nuclear Mask™ blue stain working solution was removed. […] Inhibition degrees of nascent proteins synthesis were expressed with fluorescence ratio (Alexa Fluor®/nuclear Mask™) as average±SD. […]

MRSA [2] = test: Antibiotics accumulation analysis (LC-MS/MS); type: cell-based, Staphylococcus aureus
Experimental: 11) Antibiotics accumulation analysis. The accumulation of antibiotics in MRSA was determined by LC-MS/MS analysis according to a previous report [Liu, Y et al., Adv. Sci. 7. 1902227 (2020); Ong, V et al., Drug Metab. Dispos, 4127 (2014); Richter, M. F et al., Nature 545, 299-304 (2017)]. Briefly, 1.0 ml of overnight culture of MRSA was diluted into […] of fresh LB medium and cultured at 37° C. with shaking at 250 rpm until when bacteria OD600 was about 0.4. Then, tedizolid phosphate (0.5 μg/ml) in combination with varying lysozyme (0, 0.25, 0.5 and 1.0 mg/ml) was added. After that, all samples were further cultured at 37° C. with shaking at 250 rpm for 0.5, 1.0, 2.0 or 4 hours, respectively. Then, all bacteria were pelleted by centrifuging at 13 000 g for 20 minutes. To lyse the bacteria, each pellet was dissolved in 400 μl of lysis buffer (150 mM NaCl, 1% Triton-X100, 1× proteinase inhibitor and 50 mM HEPES-Na, pH 8.0) and then subjected to sonication lysis, followed by three freeze-thaw cycles in liquid nitrogen. The lysates were pelleted at 13 000 g for 20 minutes and the supernatants were collected. All debris were re-suspended in 400 μl of methanol and pelleted as before, followed by 400 μl of acetonitrile treatment as before. These supernatants were combined with the previously collected supernatants, Residual debris was removed by centrifuging at 13 000 g for 20 minutes. Supernatants were analyzed by an Agilent 1260 Infinity HPLC system coupled to AD SCIEX QTRAP 6500 mass spectrometers (ABSciex, CA, USA). The liquid chromatography separation was performed on water HSS T3 column (2.1×100 mm, 3 μm) with mobile phase A (20 mM ammonium formate in water) and mobile phase B (methanol). The flow rate was […]. […] The quantification determination of antibiotic uptake was performed by multiple reaction monitoring (MRM) with negative electrospray ionization using the m/z 451 transition for tedizolid phosphate [Ong, V et al., Drug Metab. […]

## C=CC1=C(C(=O)O)N2C(=O)[C@@H](NC(=O)/C(=N\O)c3csc(N)n3)[C@H]2SC1 [cefdinir, Cefdinir]
MRSA-infected skin wound
  decrease in the level of IL-6 in wounds: > 16%
  decrease in the level of ROS in wounds: more than 36%

## Cn1nnc(-c2ccc(-c3ccc(N4C[C@H](COP(=O)(O)O)OC4=O)cc3F)cn2)n1 [tedizolid phosphate, Tedizolid Phosphate]
MRSA [1]; combination with 0.5 mg/ml lysozyme
  IC50: 0.32 µg/mL
MRSA [1]; monotherapy
  IC50: 9.5 µg/mL
MRSA [2]; after 4 hours, lysozyme (≤0.25 mg/ml) used in combination
  increase in the level of intracellular tedizolid phosphate: 10 fold
MRSA [2]; combination therapy, 1 hour
  intracellular accumulation of tedizolid phosphate: ca. 100 μg/l
MRSA [2]; tedizolid phosphate alone, 1 hour
  tedizolid phosphate alone needed to achieve the same intracellular accumulation: ≥ 4.5 µg/mL
